Biological target: T1, rat B1R (Rattus norvegicus, UniProt P97583)
T1 construct: expressed in transfected cells; host or cells: CHO K1 cells
T1 sequence (P97583 1-337): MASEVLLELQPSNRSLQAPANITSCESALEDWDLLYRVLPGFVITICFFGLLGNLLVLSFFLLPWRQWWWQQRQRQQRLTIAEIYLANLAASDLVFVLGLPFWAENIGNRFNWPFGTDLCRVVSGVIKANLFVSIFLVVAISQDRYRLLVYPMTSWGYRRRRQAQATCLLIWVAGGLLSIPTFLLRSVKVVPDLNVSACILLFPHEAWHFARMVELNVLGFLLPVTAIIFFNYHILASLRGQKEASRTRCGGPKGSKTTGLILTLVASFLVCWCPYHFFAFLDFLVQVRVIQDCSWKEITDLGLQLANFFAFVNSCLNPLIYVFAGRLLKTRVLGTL
Assay: FLIPR Ca2+ functional study on bradykinin receptor 1 (rB1R CHO K1 cells)
Assay type: cell-based
Settings: % inhibition rat B1R at 10 μM
Method in brief: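 CHO K1 cells stably expressing human or rat B1R were loaded with Fluo-4 and read on FLIPR (ex 488/em 540 nm, peak counts). Test compound (10 μM, or a concentration range for IC50) was added first for % activation versus control agonist; after 10-20 min, EC80 Lys-Des-Arg9-bradykinin (human) or Des-Arg9-bradykinin (rat) was added, giving % inhibition of maximum. n=2-3, N≥2.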

SMILES	% inh. (rat B1R) 10 μM [%]
COc1cc(C)c(S(=O)(=O)N2CCC[C@H]2COc2ccnc(N3CCC(c4nc(-c5ccncc5)no4)CC3)n2)c(C)c1 [H_CC-048]	63
COc1cc(C)c(S(=O)(=O)N2CCCCC2COc2nccc(N3CCC(c4cccs4)(N(C)C)CC3)n2)c(C)c1 (centres unmarked) [G_CC-070, [1-[2-[[1-[(4-methoxy-2,6-dimethyl-phenyl)sulfonyl]-piperidin-2-yl]-methoxy]-pyrimidin-4-yl]-4-thiophen-2-yl-pipendin-4-yl]-dimethyl-amine]	95
COc1cc(C)c(S(=O)(=O)N(C)CCOc2nccc(N3CCN(CC4CCN(C)CC4)CC3)n2)c(C)c1 [G_CC-007, 4-methoxy-N,2,6-trimethyl-N-[2-[[4-[4-[(1-methyl-4-piperidinyl)methyl]-1-piperazin]-2-pyrimidinyl]oxy]ethyl]benzenesulfonamide]	95

Same assay, conditions: CHO-K1, % inhibition rat B1R at 10 μM, read-out: % inh. (rat B1R) 10 μM

SMILES	inhibition at 10 µM [%]
COc1cc(C)c(S(=O)(=O)N2CCC[C@H]2COc2nccc(N(C)CCN3CCC(c4ccccc4)(N(C)C)CC3)n2)c(C)c1 [G_CC-088, 2-(4-dimethylamino-4-phenyl-piperidin-1-yl)-ethyl-[2-[[(2S)-1-[(4-methoxy-2,6-dimethyl-phenyl)sulfonyl]-pyrrolidin-2-yl]-methoxy]-pyrimidin-4-yl]-methyl-amine]	100
COc1cc(C)c(S(=O)(=O)N(C)CCOc2nccc(N3CCC(c4ccccc4)(N4CCCC4)CC3)n2)c(C)c1 [G_CC-116, 4-methoxy-N,2,6-trimethyl-N-[2-[4-(4-phenyl-4-pyrrolidin-1-yl-piperidin-1-yl)-pyrimidin-2-yl]oxy-ethyl]benzenesulfonic acid amide]	64
COc1cc(C)c(S(=O)(=O)N2CCCCC2COc2nccc(N3CCC4(CC3)OCc3ccccc34)n2)c(C)c1 (centres unmarked) [G_CC-023, 1′-[2-[[1-(4-methoxy-2,6-dimethylphenyl)sulfonyl-2-piperidinyl]methoxy]-4-pyrimidinyl]spiro[1H-isobenzofuran-3,4′-piperidine]]	50
COc1cc(C)c(S(=O)(=O)N2CCCCC2COc2nccc(N3CCC(O)(c4ccncc4)CC3)n2)c(C)c1 (centres unmarked) [G_CC-111, 1-[2-[[1-[(4-methoxy-2,6-dimethyl-phenyl)sulfonyl]-piperidin-2-yl]-methoxy]-pyrimidin-4-yl]-4-pyridin-4-yl-piperidin-4-ol]	90
COc1cc(C)c(S(=O)(=O)N2CCCCC2COc2nccc(N3CCN(c4ncccn4)CC3)n2)c(C)c1 (centres unmarked) [G_CC-012, 2-[[1-(4-methoxy-2,6-dimethylphenyl)sulfonyl-2-piperidinyl]methoxy]-4-[4-(2-pyrimidinyl)-1-piperazinyl]pyrimidine]	76
COc1cc(C)c(S(=O)(=O)N2CCC[C@H]2COc2nccc(N3CCC(O)(c4ccccn4)CC3)n2)c(C)c1 [G_CC-083, 1-[2-[[(2S)-1-[(4-methoxy-2,6-dimethyl-phenyl)sulfonyl]-pyrrolidin-2-yl]-methoxy]-pyrimidin-4-yl]-4-pyridin-2-yl-piperidin-4-ol]	62
COc1cc(C)c(S(=O)(=O)N2CCCCC2COc2nccc(N(C)CCCN3CCC(c4ccccc4)(N(C)C)CC3)n2)c(C)c1 (centres unmarked) [G_CC-101, 3-(4-dimethylamino-4-phenyl-piperidin-1-yl)-propyl-[2-[[1-[(4-methoxy-2,6-dimethyl-phenyl)sulfonyl]-piperidin-2-yl]-methoxy]-pyrimidin-4-yl]-methyl-amine]	105
COc1cc(C)c(S(=O)(=O)N2CCCCC2COc2nccc(N3CCC(n4c(=O)[nH]c5cc(Cl)ccc54)CC3)n2)c(C)c1 (centres unmarked) [G_CC-024, 6-chloro-3-[1-[2-[[1-(4-methoxy-2,6-dimethylphenyl)sulfonyl-2-piperidinyl]methoxy]-4-pyrimidinyl]-4-piperidinyl]-1H-benzimidazol-2-one]	73
CCCCC1(N(C)C)CCN(CCN(C)c2ccnc(OCC3CCCCN3S(=O)(=O)c3c(C)cc(OC)cc3C)n2)CC1 (centres unmarked) [G_CC-074, 2-(4-butyl-4-dimethylamino-piperidin-1-yl)-ethyl-[2-[[1-[(4-methoxy-2,6-dimethyl-phenyl)sulfonyl]-piperidin-2-yl]-methoxy]-pyrimidin-4-yl]-methyl-amine]	102
COc1cc(C)c(S(=O)(=O)N2c3ccccc3C[C@H]2COc2nccc(N(C)CCN3CCC(c4ccccc4)(N4CCCC4)CC3)n2)c(C)c1 [G_CC-096, [2-[[(2S)-1-[(4-methoxy-2,6-dimethyl-phenyl)sulfonyl]-2,3-dihydro-1H-indol-2-yl]-methoxy]-pyrimidin-4-yl]-methyl-[2-(4-phenyl-4-pyrrolidin-1-yl-piperidin-1-yl)-ethyl]-amine]	101
COc1cc(C)c(S(=O)(=O)N2CCCCC2COc2nccc(N3CCC(c4ccccc4)(N(C)C)CC3)n2)c(C)c1 (centres unmarked) [G_CC-113, [1-[2-[[1-[(4-methoxy-2,6-dimethyl-phenyl)sulfonyl]-piperidin-2-yl]-methoxy]-pyrimidin-4-yl]-4-phenyl-piperidin-4-yl]-dimethyl-amine]	79
COc1cc(C)c(S(=O)(=O)N(C)CCOc2nccc(N3CCC(O)(c4cccnc4)CC3)n2)c(C)c1 [G_CC-008, N-[2-[[4-[4-hydroxy-4-(3-pyridyl)-1-piperidinyl]-2-pyrimidinyl]oxy]ethyl]-4-methoxy-N,2,6-trimethylbenzenesulfonamide]	59

Second part, the compound after the results:

inhibition at 10 µM [%]	SMILES
65	CCCCC1(N(C)C)CCN(c2nccc(OC[C@@H]3CCCN3S(=O)(=O)c3c(C)cc(OC)cc3C)n2)CC1 [H_CC-068, [4-butyl-1-[4-[[(2S)-1-[(4-methoxy-2,6-dimethyl-phenyl)sulfonyl]-pyrrolidin-2-yl]-methoxy]-pyrimidin-2-yl]-piperidin-4-yl]-dimethyl-amine]
98	COc1cc(C)c(S(=O)(=O)N2c3ccccc3C[C@H]2COc2ccnc(N3CCN(c4ccncc4)CC3)n2)c(C)c1 [H_CC-019, (2S)-1-(4-methoxy-2,6-dimethylphenyl)sulfonyl-2-[[2-[4-(4-pyridyl)-1-piperazinyl]-4-pyrimidinyl]oxymethyl]indoline]
51	COc1cc(C)c(S(=O)(=O)N2CC(Oc3nccc(N4CCC(c5ccccc5)(N5CCCC5)CC4)n3)C2)c(C)c1 [G_CC-122, 2-[1-[(4-methoxy-2,6-dimethyl-phenyl)sulfonyl]-azetidin-3-yl]oxy-4-(4-phenyl-4-pyrrolidin-1-yl-piperidin-1-yl)-pyrimidine]
67	COc1cc(C)c(S(=O)(=O)N2c3ccccc3C[C@H]2COc2ccnc(N3CCN(C)CC3)n2)c(C)c1 [H_CC-016, (2S)-1-(4-methoxy-2,6-dimethylphenyl)sulfonyl-2-[[2-(4-methyl-1-piperazinyl)-4-pyrimidinyl]oxymethyl]indoline]
61	COc1cc(C)c(S(=O)(=O)N2c3ccccc3C[C@H]2COc2nccc(N3CC4CC3CN4Cc3ccc(F)cc3)n2)c(C)c1 (stereo partly drawn) [G_CC-130, (2S)-2-[[4-[2-[(4-fluorophenyl)-methyl]-2,5-diazabicyclo[2.2.1]heptan-5-yl]-pyrimidin-2-yl]oxy-methyl]-1-[(4-methoxy-2,6-dimethyl-phenyl)sulfonyl]-2,3-dihydro-1H-indole]
81	COc1cc(C)c(S(=O)(=O)N2CC(Oc3nccc(N(C)CCN4CCC(c5ccccc5)(N(C)C)CC4)n3)C2)c(C)c1 [G_CC-123, 2-(4-dimethylamino-4-phenyl-piperidin-1-yl)-ethyl-[2-[1-[(4-methoxy-2,6-dimethyl-phenyl)sulfonyl]-azetidin-3-yl]oxy-pyrimidin-4-yl]-methyl-amine]
83	COc1cc(C)c(S(=O)(=O)N(C)CCOc2ccnc(N3CCC(OCCN4CCCC4)(c4cccc(F)c4)CC3)n2)c(C)c1 [H_CC-090, N-[2-[2-[4-(3-fluorophenyl)-4-(2-pyrrolidin-1-yl-ethoxy)-piperidin-1-yl]-pyrimidin-4-yl]oxy-ethyl]-4-methoxy-N,2,6-trimethyl-benzenesulfonic acid amide]
61	COc1cc(C)c(S(=O)(=O)N2CCCCC2COc2ccnc(N3CCC(C)(N4CCOCC4)CC3)n2)c(C)c1 (centres unmarked) [H_CC-081, 4-[1-[4-[[1-[(4-methoxy-2,6-dimethyl-phenyl)sulfonyl]-piperidin-2-yl]-methoxy]-pyrimidin-2-yl]-4-methyl-piperidin-4-yl]-morpholine]
56	COc1cc(C)c(S(=O)(=O)N2CC(Oc3ccnc(N4CCC(N5CCN(C)CC5)CC4)n3)C2)c(C)c1 [H_CC-015, 4-[[1-(4-methoxy-2,6-dimethylphenyl)sulfonyl-3-azetidinyl]oxy]-2-[4-(4-methyl-1-piperazinyl)-1-piperidinyl]pyrimidine]
59	COc1cc(C)c(S(=O)(=O)N(C)CCOc2ccnc(N(C)CCN3CCC(c4ccccc4)(N(C)C)CC3)n2)c(C)c1 [H_CC-067, N-[2-[2-[2-(4-dimethylamino-4-phenyl-piperidin-1-yl)-ethyl-methyl-amino]-pyrimidin-4-yl]oxy-ethyl]-4-methoxy-N,2,6-trimethyl-benzenesulfonic acid amide]
89	COc1cc(C)c(S(=O)(=O)N2CCC[C@H]2COc2ccnc(N(C)CCCN3CCC(c4ccccc4)(N(C)C)CC3)n2)c(C)c1 [H_CC-046, 3-(4-dimethylamino-4-phenyl-piperidin-1-yl)-propyl-[4-[[(2S)-1-[(4-methoxy-2,6-dimethyl-phenyl)sulfonyl]-pyrrolidin-2-yl]-methoxy]-pyrimidin-2-yl]-methyl-amine]

— US8269000B2, “Substituted pyrimidine and triazine compounds” (Gruenenthal GmbH, priority 2008, dated 2012)
